Laboratory results as given in ChEMBL document CHEMBL3526122, “Identification of UDP-glucuronosyltransferases responsible for the glucuronidation of darexaban, an oral factor Xa inhibitor, in human liver and intestine” (Drug Metab Dispos, 2012).

Columns and labels:
[1] = target: T1, UDP-glucuronosyltransferase 1A10 (Homo sapiens, UniProt Q9HAW8); experiment: Inhibition of human recombinant UGT1A10 after 10 mins in presence of UDPGA; type: ADME
T1 sequence (Q9HAW8 whole entry): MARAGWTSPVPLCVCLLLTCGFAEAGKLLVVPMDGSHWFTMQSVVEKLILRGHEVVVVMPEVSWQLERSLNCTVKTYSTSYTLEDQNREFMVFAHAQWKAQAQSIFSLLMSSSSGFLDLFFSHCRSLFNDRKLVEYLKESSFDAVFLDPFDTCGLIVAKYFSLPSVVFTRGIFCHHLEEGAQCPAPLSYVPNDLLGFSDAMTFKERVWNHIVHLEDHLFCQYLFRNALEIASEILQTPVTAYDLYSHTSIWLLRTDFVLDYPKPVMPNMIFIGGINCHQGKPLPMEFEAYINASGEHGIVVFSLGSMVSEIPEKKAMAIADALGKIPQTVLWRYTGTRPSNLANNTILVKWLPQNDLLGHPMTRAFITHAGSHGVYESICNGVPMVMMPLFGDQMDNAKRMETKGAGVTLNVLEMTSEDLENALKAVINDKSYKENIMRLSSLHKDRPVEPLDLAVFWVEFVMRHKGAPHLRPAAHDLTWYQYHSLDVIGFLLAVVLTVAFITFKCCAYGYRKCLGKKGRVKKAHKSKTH

[2] = target: T1, UDP-glucuronosyltransferase 1A10; experiment: Activity of human recombinant UGT1A10 expressed in baculovirus-infected insect cells assessed as intrinsic clearance for enzyme-mediated glucuronide formation per mg of protein at 1 to 250 uM after 10 mins in presence of UDPGA; type: ADME
[3] = Intrinsic clearance in human intestinal microsomes assessed per mg of protein at 1 to 250 uM after 5 mins in presence of UDPGA; type: ADME, Intestine, Microsome
[4] = Drug metabolism in human intestinal microsomes assessed as glucuronidation after 5 mins by Michaelis-Menten plot analysis in presence of UDPGA; type: ADME, Intestine, Microsome
[5] = target: T2, UDP-glucuronosyltransferase 1A4 (Homo sapiens, UniProt P22310); experiment: Activity of human recombinant UGT1A4 expressed in baculovirus-infected insect cells assessed as enzyme-mediated glucuronidation per mg of protein after 10 mins in presence of UDPGA; type: ADME
T2 sequence (P22310 whole entry): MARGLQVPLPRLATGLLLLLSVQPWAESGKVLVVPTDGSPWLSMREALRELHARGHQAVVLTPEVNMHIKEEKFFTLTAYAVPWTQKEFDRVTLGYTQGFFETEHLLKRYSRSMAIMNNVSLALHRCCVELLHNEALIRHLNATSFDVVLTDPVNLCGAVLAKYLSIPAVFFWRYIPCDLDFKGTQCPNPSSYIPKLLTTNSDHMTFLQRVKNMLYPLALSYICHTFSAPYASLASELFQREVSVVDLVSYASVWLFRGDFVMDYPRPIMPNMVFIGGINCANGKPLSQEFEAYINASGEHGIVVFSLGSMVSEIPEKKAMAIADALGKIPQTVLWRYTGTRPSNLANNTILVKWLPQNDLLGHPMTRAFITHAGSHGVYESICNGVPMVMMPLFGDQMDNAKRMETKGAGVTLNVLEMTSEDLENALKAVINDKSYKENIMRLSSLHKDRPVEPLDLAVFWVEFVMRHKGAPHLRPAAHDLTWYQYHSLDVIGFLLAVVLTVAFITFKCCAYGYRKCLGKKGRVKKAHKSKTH

[6] = target: T3, UDP-glucuronosyltransferase 1A7 (Homo sapiens, UniProt Q9HAW7); experiment: Activity of human recombinant UGT1A7 expressed in baculovirus-infected insect cells assessed as intrinsic clearance for enzyme-mediated glucuronide formation per mg of protein at 1 to 250 uM after 10 mins by Michaelis-Menten plot analysis in presence of UDPGA; type: ADME
T3 sequence (Q9HAW7 whole entry): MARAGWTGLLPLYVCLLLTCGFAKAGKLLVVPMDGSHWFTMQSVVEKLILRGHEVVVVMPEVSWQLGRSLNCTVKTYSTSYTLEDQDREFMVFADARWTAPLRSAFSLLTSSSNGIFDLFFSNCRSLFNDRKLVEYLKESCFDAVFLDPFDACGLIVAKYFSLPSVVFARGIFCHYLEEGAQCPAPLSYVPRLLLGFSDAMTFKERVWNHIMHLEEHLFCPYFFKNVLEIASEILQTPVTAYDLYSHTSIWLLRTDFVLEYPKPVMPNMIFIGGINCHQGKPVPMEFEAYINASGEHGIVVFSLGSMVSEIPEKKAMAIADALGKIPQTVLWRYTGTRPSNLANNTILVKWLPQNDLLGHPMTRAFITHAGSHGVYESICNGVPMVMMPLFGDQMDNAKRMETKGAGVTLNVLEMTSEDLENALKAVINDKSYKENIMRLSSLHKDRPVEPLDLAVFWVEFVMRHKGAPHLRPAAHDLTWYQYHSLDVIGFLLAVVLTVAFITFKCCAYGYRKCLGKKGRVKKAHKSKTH

[7] = system: Liver microsome; experiment: Drug metabolism in human liver microsomes assessed as glucuronidation per mg of protein after 10 mins by Michaelis-Menten plot analysis in presence of UDPGA and absence of fatty acid free BSA; type: ADME
[8] = system: Liver microsome; experiment: Drug metabolism in human liver microsomes assessed as glucuronidation per mg of protein after 10 mins by Michaelis-Menten plot analysis in presence of UDPGA and 0.1% fatty acid free BSA; type: ADME
[9] = system: Liver microsome; experiment: Unbound intrinsic clearance in human liver microsomes assessed per mg of protein after 10 mins in presence of UDPGA and 0.1% fatty acid free BSA; type: ADME
[10] = Ratio of Km for drug metabolism in human liver microsomes to Km for human recombinant UGT1A9-mediated drug metabolism; type: ADME; conditions: recombinant enzyme
[11] = Drug metabolism in human intestinal microsomes assessed as glucuronidation at 30 uM after 5 mins by LC-MS/MS analysis relative to vehicle-treated control in presence of beta-estradiol and UDPGA; type: ADME, Intestine, Microsome; conditions: with beta-estradiol, read-out: Drug metabolism
[12] = Fraction unbound in human liver microsomes at 1 to 250 uM after 10 mins by ultrafiltration method in presence of 0.5% fatty acid free BSA; type: ADME
[13] = Fraction unbound incubation mixture containing human recombinant UGT1A9 at 1 to 250 uM after 10 mins by ultrafiltration method in presence of 0.1% fatty acid free BSA

`COc1ccc(C(=O)Nc2cccc(O)c2NC(=O)c2ccc(N3CCCN(C)CC3)cc2)cc1.O=C(O)CCC(=O)O` showed a Ki [1] of 235 µM, a clearance [2] of 39.8 µL/min/mg and a clearance [3] of 166 µL/min/mg. For the same compound, the Km at 5 min [4] was 27.3 µM, the Drug metabolism [5] was < 0.01 nmol/min/mg and the clearance [6] was 12.3 µL/min/mg. For the same compound, the Vmax [7] was 3.75 nmol/min/mg, the Vmax [8] was 3.25 nmol/min/mg and the CL free [9] was 184 µL/min/mg. The Ratio [10] was 4.3, the activity at 5 min, 30 µM [11] was 22.6% and the fraction unbound at 10 min, up to 250 µM [12] was 0.517. The Fu [13] was 0.755.
